# From the Kinase Knowledgebase extract (Sharma et al. 2016)
# Molecular target: CDK2 (UniProt P24941)
# Test: Enzyme Assay
# Conditions: not given
row,SMILES,IC50 [nM]
1,Cc1ccc2ncc(C3=C(c4cn5c6c(cccc46)CN(C(=O)N4CCCCC4)CC5)C(=O)NC3=O)n2c1,> 20000
2,FC(F)(F)c1cnc(Nc2ccc3[nH]cnc3c2)nc1Nc1ccc2[nH]cnc2c1,19

# Same assay, conditions: concentration not given here
SMILES,activity [%],inhibition [%]
Nc1n[nH]c(N)c1N=Nc1ccc(O)cc1,31,69

# Molecular target: PIK3CA (human) (UniProt P42336)
# Test: Assessment of PIK3CA Kinase Activity
# Conditions: not given
# PIK3CA (human), sequence (P42336 whole entry, looked up): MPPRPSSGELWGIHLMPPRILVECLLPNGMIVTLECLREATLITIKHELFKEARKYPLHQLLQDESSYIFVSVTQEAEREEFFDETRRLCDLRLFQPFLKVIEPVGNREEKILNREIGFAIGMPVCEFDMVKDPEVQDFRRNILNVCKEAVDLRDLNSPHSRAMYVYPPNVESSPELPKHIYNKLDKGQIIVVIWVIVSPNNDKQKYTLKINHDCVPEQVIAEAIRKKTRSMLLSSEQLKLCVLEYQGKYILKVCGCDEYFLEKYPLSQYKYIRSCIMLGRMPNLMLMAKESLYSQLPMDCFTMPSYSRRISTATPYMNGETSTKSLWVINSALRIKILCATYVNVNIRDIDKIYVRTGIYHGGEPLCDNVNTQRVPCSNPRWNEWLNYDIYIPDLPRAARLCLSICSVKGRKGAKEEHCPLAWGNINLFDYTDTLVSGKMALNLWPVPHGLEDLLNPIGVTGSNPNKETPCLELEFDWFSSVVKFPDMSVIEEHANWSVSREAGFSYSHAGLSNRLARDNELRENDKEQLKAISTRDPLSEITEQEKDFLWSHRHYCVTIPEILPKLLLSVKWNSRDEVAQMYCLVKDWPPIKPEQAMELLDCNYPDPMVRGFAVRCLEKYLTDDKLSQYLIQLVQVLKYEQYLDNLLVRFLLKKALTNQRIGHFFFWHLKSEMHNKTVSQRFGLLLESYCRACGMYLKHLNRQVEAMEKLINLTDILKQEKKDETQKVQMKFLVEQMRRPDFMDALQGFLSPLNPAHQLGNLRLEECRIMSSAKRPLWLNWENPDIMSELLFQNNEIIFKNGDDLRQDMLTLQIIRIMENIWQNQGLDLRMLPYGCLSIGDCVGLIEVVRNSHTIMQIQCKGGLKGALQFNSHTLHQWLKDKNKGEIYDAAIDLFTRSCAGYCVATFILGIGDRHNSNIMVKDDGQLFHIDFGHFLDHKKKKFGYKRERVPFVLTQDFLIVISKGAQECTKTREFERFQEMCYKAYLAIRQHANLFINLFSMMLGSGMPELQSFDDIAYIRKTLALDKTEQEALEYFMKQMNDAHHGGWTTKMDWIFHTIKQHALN
SMILES,Ki [nM],IC50 [nM]
Cc1nc(N)nc(-c2cc(Cl)cnc2Nc2cnc(Cl)c(NS(=O)(=O)N(C)C)c2)n1,12,
Nc1ncc(-c2nc(N3CCOCC3)nc3c2CCN3c2ccc(CN3CCN(CCCCF)CC3)cc2)cn1,,20
CCOC1CCN(c2ncnc(CC)c2C#Cc2ccc(N)nc2)CC1,,77
OCc1cccc(-c2cc(-n3c(C(F)F)nc4ccccc43)nc(N3CCOCC3)n2)c1,,300
CCC1(O)CCN(c2ncnc(C)c2C#Cc2ccc(N)nc2)CC1,,15
NCC(=O)N1CCC(c2cc(N3CCOCC3)nc(-n3c(C(F)F)nc4ccccc43)n2)CC1,,300
CCOC(=O)N1CCC(n2ncc3c(N4CCO[C@H](C)C4)nc(-c4ccc(NC(=O)NCCF)cc4)nc32)CC1,,4550
CCNC(=O)Nc1ccc(-c2nc(N3CCO[C@H](C)C3)c3cnn(C4CCN(C(=O)OCC)CC4)c3n2)cc1,,4360
NCCC1CCN(c2nc(N3CCOCC3)cc(-n3c(C(F)F)nc4ccccc43)n2)CC1,,200
O=C(Nc1ccc(-c2cc(-n3c(C(F)F)nc4ccccc43)nc(N3CCOCC3)n2)cc1)[C@@H]1CCCCN1,,2300
NCC(=O)N1CCN(c2cc(N3CCOCC3)nc(-n3c(C(F)F)nc4ccccc43)n2)CC1,,100
COc1cccc2c1nc(C(F)F)n2-c1nc(N2CCOCC2)cc(N2CCN(C(=O)CN)CC2)n1,,20
Cc1ncnc(N2CCC(=O)CC2)c1C#Cc1ccc(N)nc1,,104
O=C(Nc1cccc(-c2cc(N3CCOCC3)nc(-c3cccc(O)c3)n2)c1)C1CCCNC1 (centres undefined),,100
O=C(Nc1cccc(-c2cc(N3CCOCC3)nc(-c3cccc(CO)c3)n2)c1)C1CCNCC1,,100
CCOC(=O)N1CCC(n2ncc3c(N4CCO[C@H](C)C4)nc(-c4ccc(NC(=O)Nc5ccncc5)cc4)nc32)CC1,,517
NC(=O)[C@@H]1CCCN1CC(=O)N1CCN(c2nc(N3CCOCC3)cc(-n3c(C(F)F)nc4ccccc43)n2)CC1,,200
COCCOc1cnc(Nc2cnc(Cl)c(NS(C)(=O)=O)c2)c(-c2nc(C)nc(N)n2)c1,25,
CCOC(=O)N1CCC(n2ncc3c(N4CCO[C@@H](C)C4)nc(-c4ccc(NC(=O)NCCF)cc4)nc32)CC1,,521
CS(=O)(=O)Cc1cc(N2CCOCC2)nc(-c2ccc(NC(=O)c3ccno3)cc2)n1,,> 100000
Cc1ncnc(N2CCC(C)(O)CC2)c1C#Cc1ccc(N)nc1,,38

SMILES,Ki [nM],IC50 [nM]
NC(=O)[C@@H]1CCCN1C(=O)Nc1nc2ccc(-c3cnc(N)c(C(F)(F)F)c3)cc2s1,40,
NC(=O)[C@@H]1CCCCN1C1CCN(c2nc(N3CCOCC3)cc(-n3c(C(F)F)nc4ccccc43)n2)CC1,,600
CCc1ncnc(N2CCC(O)(CC)CC2)c1C#Cc1ccc(N)nc1,,50
NCC(=O)N1CCN(c2nc(N3CCOCC3)cc(-n3c(C(F)F)nc4ccccc43)n2)CC1,,100
COc1cccc(Nc2nc(-c3cccc4onc(N)c34)nc3c2cnn3C)c1OC,,1.7
NCc1ccc(NC(=O)c2cccc(-c3cc(N4CCOCC4)nc(-c4cccc(CO)c4)n3)c2)cc1,,100
CN(C(=O)c1cc2c(s1)-c1ccccc1OC2)c1ccccc1F,,254
COc1cccc(Nc2nc(-c3cccc4[nH]nc(N)c34)nc3c2cnn3C)c1OC,,11
Cc1nc(N)cc(n1)C2=C(Nc3cc[nH]n3)NC4=N2N=CC=C4,,830
CC(C)(C)COC(=O)NCc1ccc(NC(=O)Nc2ccc(-c3nc(CS(C)(=O)=O)cc(N4CC5CCC(C4)O5)n3)cc2)cc1,,1930
Cc1nc(N)nc(-c2c(Nc3ccn[nH]3)nc3ccc(CCC(O)CO)cn23)n1 (centres undefined),,170
Cc1nc(NCC(=O)N(C)C)cc(-c2c(Nc3ccn(C)n3)nc3cccnn23)n1,,20100
CCOC(=O)N1CCC(n2ncc3c(N4CCO[C@@H](C)C4)nc(-c4ccc(NC(=O)Nc5ccncc5)cc4)nc32)CC1,,18
Cn1c(=NC#N)n(-c2ccc(C(C)(C)C#N)nc2)c2c3cc(-c4ccnc(N5CCOCC5)c4Cl)ccc3ncc21,,10 to 1000
CCNC(=O)Nc1ccc(-c2nc(N3CCO[C@@H](C)C3)c3cnn(C4CCN(C(=O)OCC)CC4)c3n2)cc1,,553
NC(=O)c1ccc(NC(=O)Nc2ccc(-c3cc(N4CC5CCC(C4)O5)nc(-c4ccc(NC(=O)Nc5ccc(C(N)=O)cc5)cc4)n3)cc2)cc1,,44.5
O=C(Nc1cccc(-c2cc(N3CCOCC3)nc(-c3cccc(CO)c3)n2)c1)N1CCNCC1,,300
O=C(Nc1ccc(F)cc1)Nc1ccc(-c2nc(N3CCOCC3)nc(N3C4CCC3COC4)n2)cc1,,39
CCc1ncnc(N2CCC3(CCN(C)CC3)CC2)c1C#Cc1ccc(N)nc1,,136
NCC(=O)N1CC=C(c2cc(N3CCOCC3)nc(-n3c(C(F)F)nc4ccccc43)n2)CC1,,100

# Molecular target: MAPK14 (human) (UniProt Q16539)
# Sequence (Q16539 whole entry, looked up): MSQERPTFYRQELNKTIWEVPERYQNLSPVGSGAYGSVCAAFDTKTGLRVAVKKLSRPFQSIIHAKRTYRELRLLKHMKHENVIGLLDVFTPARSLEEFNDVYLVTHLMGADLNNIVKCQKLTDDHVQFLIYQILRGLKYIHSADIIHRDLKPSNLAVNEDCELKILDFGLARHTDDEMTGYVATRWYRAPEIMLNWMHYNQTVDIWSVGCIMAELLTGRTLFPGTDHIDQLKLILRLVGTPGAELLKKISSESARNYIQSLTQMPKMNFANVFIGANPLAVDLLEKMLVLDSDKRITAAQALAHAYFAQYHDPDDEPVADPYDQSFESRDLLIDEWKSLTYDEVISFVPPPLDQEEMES
# Test: Inhibition of MAPK14 Kinase Activity
# Conditions: concentration not given here
row,SMILES,activity [%]
1,Nc1n[nH]c(N)c1N=Nc1ccc(O)cc1,82

# Molecular target: MAPK14 (UniProt Q16539)
# Sequence (Q16539 whole entry, looked up): as above
# Test: Inhibition of MAPK14 Kinase Activity
# Conditions: not given
row,SMILES,IC50 [nM]
1,Cc1ccc2ncc(C3=C(c4cn5c6c(cccc46)CN(C(=O)N4CCCCC4)CC5)C(=O)NC3=O)n2c1,> 20000
2,CCS(=O)(=O)c1ccc(OC)c(Nc2ncc(-c3cccc(-c4ccccc4Cl)c3)o2)c1,> 10000
3,FC(F)(F)c1cnc(Nc2ccc3[nH]cnc3c2)nc1Nc1ccc2[nH]cnc2c1,> 1000
